Experimental data as given in ChEMBL document CHEMBL1201862, “PubChem BioAssay data set” (2004).
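Cultured in 96-well plates, cells were exposed to test compound for 48 hours across five concentrations. Abbreviation: GI50, concentration required for 50% inhibition of growth.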 Active and inactive are the calls of the source. Cut-off read from the data, not from the text of the source: active = GI50 up to about 1.1 µM and inactive = higher.

Experiments:
Test in all cases: growth of human tumour cells (NCI), 48 h
[1] = system: 786-0
[2] = system: A498
[3] = system: A549
[4] = system: ACHN
[5] = system: BT-549
[6] = system: CAKI-1
[7] = system: CCRF-CEM
[8] = system: COLO 205
[9] = system: DU-145
[10] = system: EKVX
[11] = system: HCC 2998
[12] = system: HCT-116
[13] = system: HCT-15
[14] = system: HL-60
[15] = system: HOP-62
[16] = system: HOP-92
[17] = system: HT-29
[18] = system: Hs-578T
[19] = system: IGROV-1
[20] = system: K562
[21] = system: KM12
[22] = system: LOX IMVI
[23] = system: M14
[24] = system: MCF7
[25] = system: MDA-MB-231
[26] = system: MDA-MB-435
[27] = system: MDA-N
[28] = system: MOLT-4
[29] = system: Malme-3M
[30] = system: NCI-H226
[31] = system: NCI-H23
[32] = system: NCI-H460
[33] = system: NCI-H522
[34] = system: NCI/ADR-RES
[35] = system: OVCAR-3
[36] = system: OVCAR-4
[37] = system: OVCAR-5
[38] = system: OVCAR-8
[39] = system: PC-3
[40] = system: RPMI-8226
[41] = system: RXF 393
[42] = system: SF-268
[43] = system: SF-295
[44] = system: SF-539
[45] = system: SK-MEL-28
[46] = system: SK-MEL-2
[47] = system: SK-MEL-5
[48] = system: SK-OV-3
[49] = system: SN12C
[50] = system: SNB-19
[51] = system: SNB-75
[52] = system: SW-620
[53] = system: T47D
[54] = system: TK-10
[55] = system: U-251
[56] = system: UACC-257
[57] = system: UACC-62
[58] = system: UO-31
[59] = system: SR

COc1ccc(C(OCC2OC(n3cnc4c(=O)n(Cc5ccccc5[N+](=O)[O-])nnc43)C(O)C2O)(c2ccccc2)c2ccc(OC)cc2)cc1 (stereo not given)
GI50 [1]: 10.8 µM (inactive)
GI50 [2]: 4.46 µM (inactive)
GI50 [3]: 5.57 µM (inactive)
GI50 [4]: 14 µM (inactive)
GI50 [5]: 16.4 µM (inactive)
GI50 [6]: 10.7 µM (inactive)
GI50 [7]: 3.76 µM (inactive)
GI50 [8]: 6.84 µM (inactive)
GI50 [9]: 19.6 µM (inactive)
GI50 [10]: 29.3 µM (inactive)
GI50 [11]: 6.97 µM (inactive)
GI50 [12]: 5.6 µM (inactive)
GI50 [13]: 9.31 µM
GI50 [14]: 2.18 µM (inactive)
GI50 [15]: 21.6 µM (inactive)
GI50 [16]: 2.38 µM (inactive)
GI50 [17]: 4.31 µM (inactive)
GI50 [18]: 20.8 µM (inactive)
GI50 [19]: 10.9 µM (inactive)
GI50 [20]: 4.6 µM (inactive)
GI50 [21]: 13.1 µM (inactive)
GI50 [22]: 6.85 µM (inactive)
GI50 [23]: 8.51 µM (inactive)
GI50 [24]: 4.28 µM (inactive)
GI50 [25]: 14.1 µM (inactive)
GI50 [26]: 10.4 µM (inactive)
GI50 [27]: 7.52 µM (inactive)
GI50 [28]: 2.31 µM (inactive)
GI50 [29]: 14.7 µM (inactive)
GI50 [30]: 5.92 µM (inactive)
GI50 [31]: 13.4 µM (inactive)
GI50 [32]: 5.57 µM (inactive)
GI50 [33]: 6.49 µM (inactive)
GI50 [34]: 19.1 µM (inactive)
GI50 [35]: 9.82 µM (inactive)
GI50 [36]: 20.6 µM (inactive)
GI50 [37]: 27.8 µM (inactive)
GI50 [38]: 8.11 µM (inactive)
GI50 [39]: 3.85 µM (inactive)
GI50 [40]: 3.36 µM (inactive)
GI50 [41]: 11.5 µM (inactive)
GI50 [42]: 16 µM (inactive)
GI50 [43]: 5.97 µM (inactive)
GI50 [44]: 11.8 µM (inactive)
GI50 [45]: 16.7 µM (inactive)
GI50 [46]: 14.7 µM (inactive)
GI50 [47]: 9.31 µM (inactive)
GI50 [48]: 20.4 µM (inactive)
GI50 [49]: 6.9 µM (inactive)
GI50 [50]: 44.9 µM (inactive)
GI50 [51]: 45.7 µM (inactive)
GI50 [52]: 17.6 µM (inactive)
GI50 [53]: 11.5 µM (inactive)
GI50 [54]: 9.53 µM (inactive)
GI50 [55]: 11 µM (inactive)
GI50 [56]: 22.2 µM (inactive)
GI50 [57]: 12.5 µM (inactive)
GI50 [58]: 11.4 µM (inactive)

Oc1ccccc1-n1nc2ccc3nonc3c2n1
GI50 [1]: > 100 µM (inactive)
GI50 [3]: > 100 µM (inactive)
GI50 [4]: > 100 µM (inactive)
GI50 [5]: > 100 µM (inactive)
GI50 [6]: > 100 µM (inactive)
GI50 [7]: > 100 µM (inactive)
GI50 [8]: > 100 µM (inactive)
GI50 [9]: > 100 µM (inactive)
GI50 [10]: 48.1 µM (inactive)
GI50 [11]: 40.9 µM (inactive)
GI50 [12]: > 100 µM (inactive)
GI50 [13]: 51.3 µM
GI50 [14]: > 100 µM (inactive)
GI50 [15]: 90.2 µM (inactive)
GI50 [16]: > 100 µM (inactive)
GI50 [17]: > 100 µM (inactive)
GI50 [18]: > 100 µM (inactive)
GI50 [19]: > 100 µM (inactive)
GI50 [20]: > 100 µM (inactive)
GI50 [21]: 30.3 µM (inactive)
GI50 [22]: > 100 µM (inactive)
GI50 [23]: > 100 µM (inactive)
GI50 [24]: > 100 µM (inactive)
GI50 [25]: > 100 µM (inactive)
GI50 [26]: > 100 µM (inactive)
GI50 [27]: > 100 µM (inactive)
GI50 [28]: > 100 µM (inactive)
GI50 [29]: > 100 µM (inactive)
GI50 [30]: > 100 µM (inactive)
GI50 [31]: > 100 µM (inactive)
GI50 [32]: > 100 µM (inactive)
GI50 [33]: > 100 µM (inactive)
GI50 [34]: > 100 µM (inactive)
GI50 [35]: > 100 µM (inactive)
GI50 [36]: > 100 µM (inactive)
GI50 [37]: > 100 µM (inactive)
GI50 [38]: > 100 µM (inactive)
GI50 [39]: > 100 µM (inactive)
GI50 [40]: > 100 µM (inactive)
GI50 [42]: > 100 µM (inactive)
GI50 [43]: > 100 µM (inactive)
GI50 [44]: > 100 µM (inactive)
GI50 [45]: > 100 µM (inactive)
GI50 [46]: > 100 µM (inactive)
GI50 [47]: > 100 µM (inactive)
GI50 [48]: > 100 µM (inactive)
GI50 [49]: > 100 µM (inactive)
GI50 [50]: > 100 µM (inactive)
GI50 [51]: > 100 µM (inactive)
GI50 [59]: > 100 µM (inactive)
GI50 [52]: > 100 µM (inactive)
GI50 [53]: > 100 µM (inactive)
GI50 [54]: > 100 µM (inactive)
GI50 [55]: > 100 µM (inactive)
GI50 [56]: > 100 µM (inactive)
GI50 [57]: > 100 µM (inactive)
GI50 [58]: 77.4 µM (inactive)
